Reference: patent US20080008704A1, “Methods of treating colorectal cancer with anti-epidermal growth factor antibodies” (priority 2001, published 2008)
“Also recorded” adds a separate entry of the source.

How the values were obtained:
Type in all cases: in vivo, human
[1] = tested on: metastatic colon cancer, liver metastasis; experiment: Prior therapies of the Example 1 patient before C225; settings: same patient
Description: (§1) A patient presented with abdominal pain and constipation. […] Pathology confirmed metastatic colon cancer which is incurable. […] Since there were no other standard treatment options their tumor was assayed for EGF receptor which was positive.

[2] = tested on: metastatic colon cancer (EGF receptor positive); experiment: Example 1: patient with metastatic colon cancer treated with C225 and CPT-11; settings: IRINOTECAN 125 mg/m^2 weekly given with C225
Description: as §1
For the first two weeks, IRINOTECAN® was administered at a dose of 125 mg/m^2.

[3] = tested on: colon cancer relapse (unresectable peritoneal disease, pulmonary metastasis); experiment: Example 2: same patient after relapse, treated again with C225 and dose reduced CPT-11, then C225 alone; settings: dose reduced CPT-11 with C225
Text: The subsequent history of the patient described in Example 1 is as follows. […] This was resected and subsequently they received both intrahepatic and systemic chemotherapy (FUDR and CPT-11) for 6 months.

Structure (SMILES)	disease course on prior therapy [1]	toxicity causing IRINOTECAN dose to be held or reduced [2]	tolerability of CPT-11 [3]
CCc1c2c(nc3ccc(OC(=O)N4CCC(N5CCCCC5)CC4)cc13)-c1cc3c(c(=O)n1C2)COC(=O)[C@]3(O)CC [IRINOTECAN]	continued to progress in the liver	diarrhea; also recorded: neutropenia	discontinued secondary to toxicity
O=C1[O][Pt]2([NH][C@@H]3CCCC[C@H]3[NH]2)[O]C1=O [OXALOPLATIN]	further disease progression in the liver	–	–
O=c1[nH]cc(F)c(=O)[nH]1 [5-FU, 5-fluorouracil]	progressed with increasing liver metastasis	–	–
